As usually defined, the viscosity is the resistance of a fluid to flow. Usually mass density stands for the mass of a sample divided by its volume.

Results on three molecules are retold here after the NIST ThermoML archive (doi:10.1016/j.jct.2013.03.023).

For this data set the following is noted: 101.33 kPa, Liquid; for viscosity: Capillary tube (Ostwald / Ubbelohde) method; for mass density: Vibrating tube method.

Molecules are shown by their SMILES. Numbers after ± are expanded uncertainties.

Regarding `CC(O)c1ccccc1` (configuration not stated) [1-phenylethanol], the viscosity was determined as 8.703 ± 0.2 mPa·s (298.15 K), 6.981 ± 0.16 mPa·s (303.15 K), 5.714 ± 0.13 mPa·s (308.15 K) and 4.748 ± 0.11 mPa·s (313.15 K). Moreover, the mass density runs as follows: (298.15 K) 1009 ± 1 kg/m3; (303.15 K) 1004.86 ± 1 kg/m3; (308.15 K) 1000.73 ± 1 kg/m3; (313.15 K) 996.58 ± 1 kg/m3.

Take `CCc1ccccc1` [ethylbenzene]: the viscosity was 0.6378 ± 0.014 mPa·s (298.15 K), 0.609 ± 0.013 mPa·s (303.15 K), 0.5682 ± 0.012 mPa·s (308.15 K) and 0.541 ± 0.012 mPa·s (313.15 K). The mass density is, setting by setting: (298.15 K) 862.51 ± 1 kg/m3; (303.15 K) 858.1 ± 1 kg/m3; (308.15 K) 853.68 ± 1 kg/m3; (313.15 K) 849.26 ± 1 kg/m3.

Turning to `O` [water], the viscosity (298.15 K) amounted to 0.891 ± 0.019 mPa·s.
